Read-outs that look alike come from different tables or passages of the source.
What was measured:
CAKI-1 = assay: NCI human tumor cell panel: CAKI-1 (Renal Cancer); assay type: cell-based; conditions: for GI50: CAKI-1, read-out: Log10 GI50 (converted); for IC (TGI): CAKI-1, read-out: Log10 TGI (converted)
TK-10 = assay: NCI human tumor cell panel: TK-10 (Renal Cancer); assay type: cell-based; conditions: for GI50: TK-10, read-out: Log10 GI50 (converted)
SNB-75 = assay: NCI human tumor cell panel: SNB-75 (CNS Cancer); assay type: cell-based; conditions: for GI50: SNB-75, read-out: Log10 GI50 (converted); for IC (TGI): SNB-75, read-out: Log10 TGI (converted)
COLO 205 = assay: NCI human tumor cell panel: COLO 205 (Colon Cancer); assay type: cell-based
HCC-2998 = assay: NCI human tumor cell panel: HCC-2998 (Colon Cancer); assay type: cell-based; conditions: for GI50: HCC-2998, read-out: Log10 GI50 (converted); for IC (TGI): HCC-2998, read-out: Log10 TGI (converted)
A498 = assay: NCI human tumor cell panel: A498 (Renal Cancer); assay type: cell-based; conditions: for GI50: A498, read-out: Log10 GI50 (converted); for IC (TGI): A498, read-out: Log10 TGI (converted)
UACC-257 = assay: NCI human tumor cell panel: UACC-257 (Melanoma); assay type: cell-based; conditions: for GI50: UACC-257, read-out: Log10 GI50 (converted); for IC (TGI): UACC-257, read-out: Log10 TGI (converted)
MCF7/ADR-RES = assay: NCI human tumor cell panel: MCF7/ADR-RES (Breast Cancer); assay type: cell-based; conditions: for GI50: read-out: Log10 GI50 (converted); for IC (TGI): read-out: Log10 TGI (converted)
NCI-H226 = assay: NCI human tumor cell panel: NCI-H226 (Non-Small Cell Lung Cancer); assay type: cell-based; conditions: for GI50: NCI-H226, read-out: Log10 GI50 (converted); for IC (TGI): NCI-H226, read-out: Log10 TGI (converted)
SK-MEL-2 = assay: NCI human tumor cell panel: SK-MEL-2 (Melanoma); assay type: cell-based; conditions: for GI50: SK-MEL-2, read-out: Log10 GI50 (converted); for IC (TGI): SK-MEL-2, read-out: Log10 TGI (converted)
SF-268 = assay: NCI human tumor cell panel: SF-268 (CNS Cancer); assay type: cell-based; conditions: for GI50: SF-268, read-out: Log10 GI50 (converted); for IC (TGI): SF-268, read-out: Log10 TGI (converted)
KM12 = assay: NCI human tumor cell panel: KM12 (Colon Cancer); assay type: cell-based; conditions: for GI50: KM12, read-out: Log10 GI50 (converted); for IC (TGI): KM12, read-out: Log10 TGI (converted)
MCF7 = assay: NCI human tumor cell panel: MCF7 (Breast Cancer); assay type: cell-based; conditions: for GI50: MCF7, read-out: Log10 GI50 (converted); for IC (TGI): MCF7, read-out: Log10 TGI (converted)
SK-MEL-28 = assay: NCI human tumor cell panel: SK-MEL-28 (Melanoma); assay type: cell-based; conditions: for GI50: SK-MEL-28, read-out: Log10 GI50 (converted); for IC (TGI): SK-MEL-28, read-out: Log10 TGI (converted)
NCI-H460 = assay: NCI human tumor cell panel: NCI-H460 (Non-Small Cell Lung Cancer); assay type: cell-based; conditions: for GI50: NCI-H460, read-out: Log10 GI50 (converted); for IC (TGI): NCI-H460, read-out: Log10 TGI (converted)
OVCAR-5 = assay: NCI human tumor cell panel: OVCAR-5 (Ovarian Cancer); assay type: cell-based; conditions: for GI50: OVCAR-5, read-out: Log10 GI50 (converted); for IC (TGI): OVCAR-5, read-out: Log10 TGI (converted)
SR = assay: NCI human tumor cell panel: SR (Leukemia); assay type: cell-based; conditions: for GI50: read-out: Log10 GI50 (converted); for IC (TGI): read-out: Log10 TGI (converted)
MDA-MB-231/ATCC = assay: NCI human tumor cell panel: MDA-MB-231/ATCC (Breast Cancer); assay type: cell-based; conditions: for GI50: read-out: Log10 GI50 (converted)
[1] = test system: panel of sixty different human tumor cell lines; assay: NCI human tumor cell panel: whole panel (mean graph summary); conditions: for CC50: Homo sapiens; for Log10 TGI, Delta / Log10 TGI, Range: whole panel
MDA-MB-435 = assay: NCI human tumor cell panel: MDA-MB-435 (Breast Cancer); assay type: cell-based; conditions: for GI50: MDA-MB-435, read-out: Log10 GI50 (converted)
IGROV1 = assay: NCI human tumor cell panel: IGROV1 (Ovarian Cancer); assay type: cell-based; conditions: for GI50: IGROV-1, IGROV1, read-out: Log10 GI50 (converted); for IC (TGI): IGROV-1, IGROV1, read-out: Log10 TGI (converted)
RXF-393 = assay: NCI human tumor cell panel: RXF-393 (Renal Cancer); assay type: cell-based; conditions: for GI50: RXF-393, read-out: Log10 GI50 (converted); for IC (TGI): RXF-393, read-out: Log10 TGI (converted)
M14 = assay: NCI human tumor cell panel: M14 (Melanoma); assay type: cell-based; conditions: for GI50: M14, read-out: Log10 GI50 (converted); for IC (TGI): M14, read-out: Log10 TGI (converted)
HL-60(TB) = assay: NCI human tumor cell panel: HL-60(TB) (Leukemia); assay type: cell-based; conditions: for GI50: read-out: Log10 GI50 (converted)
SK-MEL-5 = assay: NCI human tumor cell panel: SK-MEL-5 (Melanoma); assay type: cell-based; conditions: for GI50: SK-MEL-5, read-out: Log10 GI50 (converted); for IC (TGI): SK-MEL-5, read-out: Log10 TGI (converted)
K-562 = assay: NCI human tumor cell panel: K-562 (Leukemia); assay type: cell-based; conditions: for GI50: K562, K-562, read-out: Log10 GI50 (converted); for IC (TGI): K562, K-562, read-out: Log10 TGI (converted)
NCI-H322M = assay: cells; assay type: cell-based; conditions: Homo sapiens; for GI50: read-out: Log10 GI50 (converted); for IC (TGI): read-out: Log10 TGI (converted)
[2] = Homo sapiens, MDA-MB-231, MDA-MB-231/ATCC
[3] = read-out: Log10 LC50, MG_MID, mean over the panel (converted)
[4] = read-out: Log10 LC50, row head (cell line) not given (converted)

Compound: OCc1ccc(-c2ccc(-c3ccc(CO)[se]3)[se]2)[se]1 [compound 675247]
- GI50 (CAKI-1): 0.0741 µM
- IC (TGI) (CAKI-1): 0.468 µM
- GI50 (TK-10): 0.138 µM
- GI50 (SNB-75): 14.8 µM
- IC (TGI) (SNB-75): 38.9 µM
- GI50 (COLO 205; COLO 205, read-out: Log10 GI50 (converted)): 1.95 µM
- IC (TGI) (COLO 205; COLO 205, read-out: Log10 TGI (converted)): 5.13 µM
- GI50 (HCC-2998): 0.851 µM
- IC (TGI) (HCC-2998): 3.24 µM
- GI50 (A498): 0.38 µM
- IC (TGI) (A498): 1.41 µM
- GI50 (UACC-257): 0.437 µM
- IC (TGI) (UACC-257): 2 µM
- GI50 (MCF7/ADR-RES): 3.8 µM
- IC (TGI) (MCF7/ADR-RES): 26.3 µM
- GI50 (NCI-H226): 1.7 µM
- IC (TGI) (NCI-H226): 3.89 µM
- GI50 (SK-MEL-2): 7.08 µM
- IC (TGI) (SK-MEL-2): 24 µM
- GI50 (SF-268): 1.74 µM
- IC (TGI) (SF-268): 4.37 µM
- GI50 (KM12): 4.47 µM
- IC (TGI) (KM12): 15.1 µM
- GI50 (MCF7): 0.158 µM
- IC (TGI) (MCF7): 11.2 µM
- GI50 (SK-MEL-28): 5.13 µM
- IC (TGI) (SK-MEL-28): > 100 µM
- GI50 (NCI-H460): 0.525 µM
- IC (TGI) (NCI-H460): 10 µM
- GI50 (OVCAR-5): 1.32 µM
- IC (TGI) (OVCAR-5): 12.9 µM
- GI50 (SR): 3.72 µM
- IC (TGI) (SR): > 100 µM
- GI50 (MDA-MB-231/ATCC; [2]): 5.01 µM
- Log10 GI50 (MDA-MB-231/ATCC; MDA-MB-231/ATCC): −5.27
- CC50 [1, 3]: 45.7 µM
- CC50 [1, 4]: > 100 µM
- Log10 GI50, MG_MID ([1]; mean over the panel): −5.65
- Log10 TGI, Delta [1]: 1.36
- Log10 TGI, Range [1]: 2.33
- GI50 (MDA-MB-435): 2.95 µM
- IC (TGI) (MDA-MB-435; MDA-MB-435, read-out: Log10 TGI (converted)): 9.77 µM
- GI50 (IGROV1): 1.38 µM
- IC (TGI) (IGROV1): 6.46 µM
- GI50 (RXF-393): 1.58 µM
- IC (TGI) (RXF-393): 3.72 µM
- GI50 (M14): 3.72 µM
- IC (TGI) (M14): 12.9 µM
- GI50 (HL-60(TB)): 4.07 µM
- GI50 (SK-MEL-5): 1.45 µM
- IC (TGI) (SK-MEL-5): 3.02 µM
- GI50 (K-562): 1.32 µM
- IC (TGI) (K-562): 5.01 µM
- GI50 (NCI-H322M): 11.2 µM
- IC (TGI) (NCI-H322M): 24.5 µM

Compound: OCc1ccc(-c2ccc(-c3ccc(CO)[se]3)s2)[se]1 [compound 676632]
- GI50 (CAKI-1): 0.0126 µM
- IC (TGI) (CAKI-1): 0.123 µM
- GI50 (TK-10): 0.0282 µM
- IC (TGI) (TK-10; TK-10, read-out: Log10 TGI (converted)): 0.0813 µM
- GI50 (SNB-75): > 100 µM
- IC (TGI) (SNB-75): > 100 µM
- GI50 (HCC-2998): 0.178 µM
- IC (TGI) (HCC-2998): 0.55 µM
- GI50 (A498): 0.0186 µM
- IC (TGI) (A498): 0.0427 µM
- GI50 (UACC-257): 0.0214 µM
- IC (TGI) (UACC-257): > 100 µM
- GI50 (MCF7/ADR-RES): > 100 µM
- IC (TGI) (MCF7/ADR-RES): > 100 µM
- GI50 (NCI-H226): 0.0195 µM
- IC (TGI) (NCI-H226): 0.0537 µM
- GI50 (SK-MEL-2): > 100 µM
- IC (TGI) (SK-MEL-2): > 100 µM
- GI50 (SF-268): > 100 µM
- IC (TGI) (SF-268): > 100 µM
- GI50 (KM12): 0.537 µM
- IC (TGI) (KM12): > 100 µM
- GI50 (MCF7): 0.0123 µM
- IC (TGI) (MCF7): > 100 µM
- GI50 (SK-MEL-28): > 100 µM
- IC (TGI) (SK-MEL-28): > 100 µM
- GI50 (NCI-H460): 0.0468 µM
- IC (TGI) (NCI-H460): > 100 µM
- GI50 (OVCAR-5): 0.0132 µM
- IC (TGI) (OVCAR-5): 0.0776 µM
- GI50 (SR): > 100 µM
- IC (TGI) (SR): > 100 µM
- GI50 (MDA-MB-231/ATCC; [2]): > 100 µM
- IC (TGI) (MDA-MB-231/ATCC; Homo sapiens, MDA-MB-231, MDA-MB-231/ATCC, read-out: Log10 TGI (converted)): > 100 µM
- CC50 [1, 3]: 69.2 µM
- CC50 [1, 4]: > 100 µM
- Log10 TGI ([1]; listed as head (cell line) not given): >−4.00
- Log10 GI50, MG_MID ([1]; mean over the panel): −5.16
- Log10 TGI, MG_MID ([1]; mean over the panel): −4.48
- Log10 TGI, Delta [1]: 2.89
- Log10 TGI, Range [1]: 3.37
- GI50 (MDA-MB-435): > 100 µM
- GI50 (IGROV1): 0.0324 µM
- IC (TGI) (IGROV1): 0.275 µM
- GI50 (RXF-393): > 100 µM
- IC (TGI) (RXF-393): > 100 µM
- GI50 (M14): > 100 µM
- IC (TGI) (M14): > 100 µM
- GI50 (HL-60(TB)): > 100 µM
- IC (TGI) (HL-60(TB); read-out: Log10 TGI): > 100 µM
- GI50 (SK-MEL-5): 63.1 µM
- IC (TGI) (SK-MEL-5): > 100 µM
- GI50 (K-562): 0.0479 µM
- IC (TGI) (K-562): > 100 µM
- GI50 (NCI-H322M): > 100 µM
- IC (TGI) (NCI-H322M): > 100 µM
